Entries after “also recorded” stand apart in the source; their conditions may differ.

The results in this text go back to patent US8759364B2, “Methods of treating bone mass diseases” (The Trustees of Columbia University in the City of New York, priority 2008, dated 2014).

The subject of one data set is Lrp5−/− mice. Description: pCPA treatment of WT and Lrp5−/− mice (bone histomorphometry, serum serotonin, TPH1/TPH2 expression). It is filed as in vivo. How it is done: Consistent with the conclusion that the increase in serum serotonin level is responsible fully or partly for the bone phenotype of the Lrp5−/− mice is the discovery that pCPA, a serotonin synthesis inhibitor (Eldridge et al., 1981, Ann. Rev. Physiol. 43:121-135), prevented the appearance of the Lrp5−/− bone phenotype by decreasing serotonin production. WT and Lrp5−/− mice were treated with 300 mg/kg pCPA intraperitoneally three times per week, from 3 weeks to 12 weeks of age (FIG. 7A) and the changes in serum serotonin levels, TPH1 expression in gut and TPH2 expression in brain stem were analyzed. Bone histomorphometry was also performed. […] This rescue of the Lrp5−/− phenotype was achieved by normalization of the gut TPH1 mRNA and of serum serotonin levels (FIGS. 7C and 7D).
Generation of Lrp5−/− (Kato et al., 2002, J. Cell Biol. 157:303-314) β-cateninfloxed/floxed (Glass et al., 2005, Dev. Cell 8:751-764), α1(I)collagen-cre transgenic (Dacquin et al., 2002, Dev. Dyn. 224:245-251) and Htt−/− (Ansorge et al., 2008, J. Neurosci. 28:199-207) mice were as described previously. Lrp5+/−;Htt+/− double heterozygous mice were generated by crossing Lrp5+/− and Htt+/− mice. Three week-old Wt or Lrp5−/− mice were administered pCPA on alternate days for 9 weeks by i.p. All animal protocols were approved by the Animal Care Committees of Columbia University.
Static histomorphometry measurements were performed as previously described in accordance with standard nomenclature, using the Osteomeasure Analysis System (Osteometrics, Inc) (Ducy et al., 2000, Cell 100:197-207). Four to 9 animals were assigned per group.
Serotonin serum levels were quantified using immunoassay kits from Fitzgerald (Serotonin) and serotonin levels in the different regions of the brain were quantified by HPLC method as described previously (Mann et al., 1992, Arch. Gen. Psychiatry 49:442-446).

The subject of another data set is serotonin in the brain. Description: Brain serotonin and blood brain barrier crossing after oral feeding. It is filed as in vivo, mice. How it is done: (§1) The ability of selective TPH1 inhibitor CBMIDA to reduce peripheral serotonin measured in serum was tested. Either 250 or 500 mg/kg doses of CBMIDA were administered orally twice in 20 hours to 4 week old mice, 4-5 mice per group. As a control, some mice were untreated and some received 250 mg/kg pCPA orally. […] CBMIDA has been reported to be an EDTA analog that increases osteoid volume in beagle dogs and induces proliferation of rat calvarial-derived osteoblasts in vitro (Xie, et al., Bioorganic & Medicinal Chemistry Letters 15 (2005) 3267-3270, incorporated herein by reference in its entirety).
(§2) Before the experiments, animals were separated into individual cages one day prior to the experiment. Compounds were fed orally (gavage) to the mouse, calculated according to the weight of the mouse, twice a day at 1700 h and at 1100 h. […] This route created two potential barriers for the compound to reach the brain. […] Control animals received the same volume of vehicle. Blood was collected through heart puncture on isofluorane-anaesthesized animals and allowed to clot for 5 minutes on ice. The serum was separated, snap chilled in liquid nitrogen and frozen at −80° C. till analyzed. Brainstems from all the animals were collected and processed for brain serotonin measurement through HPLC.

The next data set has as its system peripheral serotonin. Description: Effect of oral CBMIDA on peripheral serotonin production in mice (serum serotonin ELISA), Example 1. The class given is in vivo. Here is the method: as §1
One month old C57Bl/6 inbred male mice, weighing 15-16 g were used in the experiments. Animals were housed under 12 h light/12 h dark conditions in a room with controlled temperature (22° C.) and humidity (60%). Mice had ad libitum access to food and water, and were used after a minimum of 4 days of acclimatization to the housing conditions. All experiments were conducted following Columbia University Guidelines for the Animal Use and Care of laboratory mice.
as §2
The Serotonin ELISA kit obtained from the Fitzgerald company was used to measure derivatized serotonin from serum. Derivatization is part of the sample preparation. Serotonin present in the serum was first quantitatively acylated into N-Acylserotonin using the acylation reagent. The principle of the assay is based on competitive ELISA, wherein serotonin that is bound to the solid phase of the plate and the N-acylserotonin compete for the fixed number of antiserum binding sites. When the reaction is in equilibrium, free antigen and free antigen-antiserum complexes are removed by washing.
The antibody bound to the solid phase serotonin is then detected using antirabbit/peroxidase. The substrate TMB/Peroxidase reaction is read at 450 nm. The amount of antibody bound to the solid phase serotonin is inversely proportional to the concentration of serotonin in the sample.
Catechol-3,6-bis methyleneiminodiacetic acid (CBMIDA) (basic structure is an EDTA-like compound and the catechol ring is at the centre) synthesized at the Columbia University Chemistry division, and para-chlorophenylalanine (pCPA) obtained from Sigma Aldrich Corp. were used. Each compound was dissolved with twice molar solution of NaHCO3 in water and given to mouse orally at 250 and 500 mg/kg/dose.
Background: ELISA stands for enzyme-linked immunosorbent assay.

[1] abbreviates: 300 mg/kg pCPA i.p. three times per week, 3 to 12 weeks of age, FIG. 7.

Take `NC(Cc1ccc(Cl)cc1)C(=O)O` (stereo not drawn) [pCPA, para-chlorophenylalanine]: the “bone mass in WT mice” value in the data set on Lrp5−/− mice (300 mg/kg pCPA i.p. three times per week, 3 to 12 weeks of age) is “without overtly affecting”. In addition, in the data set on Lrp5−/− mice (setting [1]), the “gut TPH1 mRNA in Lrp5−/− mice” value is “normalization” and the “serum serotonin levels in Lrp5−/− mice” value is listed as “normalization; also recorded: normalizes”. The “bone abnormalities (low bone phenotype) of Lrp5−/− mice” value with Lrp5−/− mice (300 mg/kg pCPA i.p. three times per week, 3 to 12 weeks of age, histomorphometry, FIG. 7B) was “corrected”. Moreover, in the data set with Lrp5−/− mice (treated mice, 300 mg/kg pCPA i.p.), the “Brain TPH2 mRNA levels” value is recorded as “not affected”. In addition, the “serotonin in the brain” value in the data set on serotonin in the brain (250 mg/kg orally) is recorded as “did not decrease”. Besides, the “crossing of the blood brain barrier” value in the data set on serotonin in the brain (at the amounts used (250 mg/kg)) is recorded as “did not cross”. Moreover, in the data set with peripheral serotonin (250 mg/kg orally twice in 20 hours, 4 week old mice), the “reduction of peripheral serotonin measured in serum” value is on record as roughly 50%. Besides, the “serum serotonin levels decreased to % below normal range” value in the data set with peripheral serotonin (pCPA used as control, oral, FIG. 11) is reported as greater than 60%.
